Type in all cases: biochemical
One test deals with T1, Sulf-2 (Homo sapiens, UniProt Q8IWU5).
T1 construct: host or cells: 293T cells, transiently transfected
The test is described as follows: Inhibition of Sulf-2-catalysed desulfation of 4-MUS to fluorescent MU. As to conditions: for inhibition at 1000 µM: 1 mM compound, 4-MUS substrate, means of two or more determinations, read-out: Sulf-2% inh @ 1 mM; for IC50: non-linear regression, 7 inhibitor concentrations in duplicate, mean ± SEM. The method, then: (§1) Compounds were assayed for their ability to inhibit the Sulf-2-catalysed desulfation of 4-methylumbelliferyl sulfate (4-MUS) to the fluorescent 4-methylumbelliferone (MU). To determine their sulfatase selectivity, inhibition of aryl sulfatases A (ARSA) and B (ARSB) was also assessed. To date no suitable benchmark inhibitors of these sulfatase have been reported. […] In the majority of cases the presence of a substituent on the B-ring was detrimental to Sulf-2 inhibition when compared with unsubstituted biphenyl sulfamate 76. Aminosulfates 54 and 62 and carboxylic acid 15 retained potency. […] Compounds 8, 10, 15, 50 and 51 were also relatively potent ARSA inhibitors. […] Aminosulfates 56 and 63 were the best Sulf-2 inhibitors lacking a trichloroethylsulfamate group.
1 – Biological assay protocols
Compounds were screened using 4-MUS as a substrate for Sulf-2 according to a protocol described by Morimoto-Tomita et al.1 Briefly 293T cells were transiently transfected with pcDNA3.1/Myc-His(-)-HSulf-2 DNA (Addgene) and TransIT-LT1 Transfection Reagent (Mirus) using a transfection mixture at the ratio 1:3 (µg DNA:
µL transfection reagent) in Opti-MEM I reduced serum medium (Gibco). Conditioned medium containing Sulf-2 was collected after 3 days and bound to HIS-Select Nickel affinity gel (Sigma) overnight at 4 °C. Beads were washed three times with washing buffer containing 50 mM HEPES (pH 7.5), 300 mM NaCl, 0.05% Tween 20, followed by washing once with washing buffer containing no tween. Beads were suspended in 50 mM Hepes (pH 7.5) and used in inhibition assays. 20 μL of bead slurry was incubated with 1 mM compound (in DMSO) plus 10X reaction buffer (500 mM HEPES pH 7.5, 100 mM CaCl2) for 1 h at 37 °C. The reaction was started by the addition of 20 μL of 20 mM 4-MUS (final concentration of 8 mM) and incubated at 37 °C for 1 h. The reaction was stopped with 100 μL 1 M Tris buffer (pH 10.4) and read at 460 nm following excitation at 355 nm in FLUOstar Omega plate reader (BMG Labtech) using Omega data analysis software. […]

The next test addresses T2, aryl sulfatase A (ARSA) (Homo sapiens, UniProt P15289).
T2 construct: purchased R & D Systems
T2 sequence (P15289 19-507): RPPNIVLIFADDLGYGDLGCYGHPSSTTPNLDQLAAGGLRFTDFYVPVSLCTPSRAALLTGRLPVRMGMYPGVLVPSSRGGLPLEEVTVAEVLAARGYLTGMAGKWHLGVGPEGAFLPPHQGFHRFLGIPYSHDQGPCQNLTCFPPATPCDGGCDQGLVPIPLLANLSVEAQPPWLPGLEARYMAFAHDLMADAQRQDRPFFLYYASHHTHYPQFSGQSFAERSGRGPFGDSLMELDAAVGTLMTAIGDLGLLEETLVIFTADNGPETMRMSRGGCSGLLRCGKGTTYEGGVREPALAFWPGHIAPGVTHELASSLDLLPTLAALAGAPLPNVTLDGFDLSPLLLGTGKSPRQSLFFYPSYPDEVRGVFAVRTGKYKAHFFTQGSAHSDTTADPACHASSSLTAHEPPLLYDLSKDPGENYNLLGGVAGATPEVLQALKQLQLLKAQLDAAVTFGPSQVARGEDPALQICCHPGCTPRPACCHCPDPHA
The test is described as follows: ARSA inhibition assay with 4-MUS substrate. As to conditions: for inhibition at 1000 µM: 1 mM compound, 4-MUS substrate, means of two or more determinations, read-out: ARSA% inh @ 1 mM; for IC50: non-linear regression, 7 inhibitor concentrations in duplicate, mean ± SEM. The procedure:
as §1
(§2) 1 – Biological assay protocols […]
(§3) Omega data analysis software.
(§4) ARSA and ARSB assay protocols
(§5) Compounds were screened in a 96-well black plate (Sterilin) using 4-MUS as a substrate, using 50 μL reaction mixture containing 40 ng of the commercially available enzymes (ARSA or ARSB from R & D Systems), 50 mM HEPES (pH = 4.5), 10 mM CaCl2, 1 mM test compound (dissolved in DMSO; final concentration of DMSO in reaction = 2%), and H2O (45 μL). The assay mixture was incubated for 1 h at 37 °C, followed by addition of 5 μL of 4-MUS (Km = 1.6 mM for ARSA and 612 μM for ARSB), and incubation for a further 1 h at 37 °C. The reaction was stopped with 100 μL of 1 M Tris (pH = 10.5) and read at 460 nm following excitation at 355 nm in FLUOstar Omega plate reader (BMG Labtech) using Omega data analysis software.

Another test concerns the target T3, aryl sulfatase B (ARSB) (Homo sapiens, UniProt P15848).
T3 construct: purchased R & D Systems
The test is described as follows: ARSB inhibition assay with 4-MUS substrate. As to conditions: for inhibition at 1000 µM: 1 mM compound, 4-MUS substrate, means of two or more determinations, read-out: ARSB% inh @ 1 mM; for IC50: non-linear regression, 7 inhibitor concentrations in duplicate, mean ± SEM. The method, then: as §1, §2, §3, §4, §5

SMILES strings stand for the structures.

The values that follow come from paper PMC5477036, “Design and synthesis of biphenyl and biphenyl ether inhibitors of sulfatases” (Chemical Science, 2016).

Broadly, the IC50 is the concentration that gives 50% inhibition. A higher IC50 goes with a need for much substance.

T1 sequence (Q8IWU5 25-870): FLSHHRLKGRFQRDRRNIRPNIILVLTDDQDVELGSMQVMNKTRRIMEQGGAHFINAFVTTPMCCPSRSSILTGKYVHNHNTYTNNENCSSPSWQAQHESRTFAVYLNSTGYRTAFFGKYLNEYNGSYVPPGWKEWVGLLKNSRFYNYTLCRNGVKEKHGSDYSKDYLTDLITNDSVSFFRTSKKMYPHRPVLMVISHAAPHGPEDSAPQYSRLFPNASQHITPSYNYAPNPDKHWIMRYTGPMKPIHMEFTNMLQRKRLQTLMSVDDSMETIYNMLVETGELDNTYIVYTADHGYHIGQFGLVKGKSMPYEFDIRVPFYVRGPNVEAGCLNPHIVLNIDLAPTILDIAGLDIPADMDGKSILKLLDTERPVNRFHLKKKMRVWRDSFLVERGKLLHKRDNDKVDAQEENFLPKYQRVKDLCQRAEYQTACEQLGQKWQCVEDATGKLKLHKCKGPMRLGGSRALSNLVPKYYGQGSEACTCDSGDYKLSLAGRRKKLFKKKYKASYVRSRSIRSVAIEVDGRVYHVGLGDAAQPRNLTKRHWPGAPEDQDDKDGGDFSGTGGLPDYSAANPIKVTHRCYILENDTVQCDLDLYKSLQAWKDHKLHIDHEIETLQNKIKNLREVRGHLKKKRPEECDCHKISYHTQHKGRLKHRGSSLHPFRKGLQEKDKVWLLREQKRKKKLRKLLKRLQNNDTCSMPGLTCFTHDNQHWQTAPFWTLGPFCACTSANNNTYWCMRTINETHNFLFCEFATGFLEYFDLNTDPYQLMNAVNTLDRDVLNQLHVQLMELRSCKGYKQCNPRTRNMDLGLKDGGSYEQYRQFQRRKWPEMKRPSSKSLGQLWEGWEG
T3 sequence (P15848 37-533, species assumed): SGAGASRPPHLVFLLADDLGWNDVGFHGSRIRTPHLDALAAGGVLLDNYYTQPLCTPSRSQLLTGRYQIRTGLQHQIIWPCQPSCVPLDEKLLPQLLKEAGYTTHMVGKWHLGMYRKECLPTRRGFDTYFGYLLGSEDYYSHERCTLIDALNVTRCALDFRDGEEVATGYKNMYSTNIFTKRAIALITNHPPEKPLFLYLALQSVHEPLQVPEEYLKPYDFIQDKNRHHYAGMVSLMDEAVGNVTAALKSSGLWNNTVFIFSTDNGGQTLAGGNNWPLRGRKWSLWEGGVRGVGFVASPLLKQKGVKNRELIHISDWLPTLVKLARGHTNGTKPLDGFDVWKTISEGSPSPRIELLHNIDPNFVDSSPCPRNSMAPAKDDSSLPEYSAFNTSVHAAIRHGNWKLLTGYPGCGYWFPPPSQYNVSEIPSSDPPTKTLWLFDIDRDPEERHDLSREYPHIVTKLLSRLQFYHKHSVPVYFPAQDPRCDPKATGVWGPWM

Turning to `COC(=O)c1ccccc1-c1cccc(OS(N)(=O)=O)c1` [Compound 8], the inhibition at 1000 µM on Sulf-2 is 20%; on aryl sulfatase A (ARSA), 86%; on aryl sulfatase B (ARSB), 0%.
For `NS(=O)(=O)Oc1cccc(-c2cccc(C(=O)O)c2)c1` [Compound 9], the inhibition at 1000 µM is 12% on Sulf-2, 59% on aryl sulfatase A (ARSA) and 0% at aryl sulfatase B (ARSB).
On the same counts, the results for `NS(=O)(=O)Oc1cccc(-c2ccc(C(=O)O)cc2)c1` [Compound 10] are 22%, 85% and 0%.
Taken in the same sequence, the figures for `Nc1ccccc1-c1cccc(OS(N)(=O)=O)c1` [Compound 11] were 21%, 0% and 0%.
For the molecule `Nc1cccc(-c2cccc(OS(N)(=O)=O)c2)c1` [Compound 12], the inhibition at 1000 µM at Sulf-2 stood at 20%; on aryl sulfatase A (ARSA) it was 0%; on aryl sulfatase B (ARSB) it was 0%.
For the molecule `Nc1ccc(-c2cccc(OS(N)(=O)=O)c2)cc1` [Compound 13], the inhibition at 1000 µM came to 6% on Sulf-2, 61% at aryl sulfatase A (ARSA) and 0% on aryl sulfatase B (ARSB).
Consider `NS(=O)(=O)Oc1cccc(-c2ccccc2C(=O)O)c1` [Compound 15], for which the inhibition at 1000 µM at Sulf-2 is 31%; at aryl sulfatase A (ARSA) it was 98%; at aryl sulfatase B (ARSB), 0%.
Consider `Nc1ccccc1Oc1cccc(OS(N)(=O)=O)c1` [Compound 25], for which the inhibition at 1000 µM at Sulf-2 worked out at 28%; at aryl sulfatase A (ARSA), 75%; on aryl sulfatase B (ARSB), 17%.
With `Nc1cccc(Oc2cccc(OS(N)(=O)=O)c2)c1` [Compound 26], the inhibition at 1000 µM at Sulf-2 is 31%; on aryl sulfatase A (ARSA), 75%; on aryl sulfatase B (ARSB) it was 0%.
`Nc1ccc(Oc2cccc(OS(N)(=O)=O)c2)cc1` [Compound 27]: the figures for the inhibition at 1000 µM at Sulf-2, at aryl sulfatase A (ARSA) and on aryl sulfatase B (ARSB) were 14%, 75% and 0%, respectively.
As for `CC(=O)Nc1ccccc1-c1cccc(OS(N)(=O)=O)c1` [Compound 34], the values for the inhibition at 1000 µM at Sulf-2, at aryl sulfatase A (ARSA) and on aryl sulfatase B (ARSB) were 4%, 33% and 0%, respectively.
On the same counts, the results for `CC(=O)Nc1cccc(-c2cccc(OS(N)(=O)=O)c2)c1` [Compound 35] are 8%, 52% and 33%.
In the case of `CC(=O)Nc1ccc(-c2cccc(OS(N)(=O)=O)c2)cc1` [Compound 36], the results for the inhibition at 1000 µM on Sulf-2, on aryl sulfatase A (ARSA) and at aryl sulfatase B (ARSB) were 3%, 0% and 0%, respectively.
Take `CC(=O)Nc1ccccc1Oc1cccc(OS(N)(=O)=O)c1` [Compound 37]: the inhibition at 1000 µM on Sulf-2 is 11%; on aryl sulfatase A (ARSA), 29%; at aryl sulfatase B (ARSB), 48%.
Take `CC(=O)Nc1cccc(Oc2cccc(OS(N)(=O)=O)c2)c1` [Compound 38]: the inhibition at 1000 µM turned out to be 10% on Sulf-2, 57% on aryl sulfatase A (ARSA) and 0% at aryl sulfatase B (ARSB).
Taken in the same sequence, the figures for `CC(=O)Nc1ccc(Oc2cccc(OS(N)(=O)=O)c2)cc1` [Compound 39] were 14%, 45% and 0%.
`NS(=O)(=O)Oc1cccc(-c2cccc(NS(=O)(=O)OCC(Cl)(Cl)Cl)c2)c1` [Compound 50]: the inhibition at 1000 µM at Sulf-2 was determined as 99%; on aryl sulfatase A (ARSA) it was 92%; on aryl sulfatase B (ARSB), 67%. Besides, the IC50 at Sulf-2 turned out to be 167 ± 5 µM; at aryl sulfatase A (ARSA) it was 55 ± 11 µM; on aryl sulfatase B (ARSB), 130 ± 6 µM.
With `NS(=O)(=O)Oc1cccc(-c2ccc(NS(=O)(=O)OCC(Cl)(Cl)Cl)cc2)c1` [Compound 51], the inhibition at 1000 µM was determined as 96% at Sulf-2, 99% on aryl sulfatase A (ARSA) and 68% at aryl sulfatase B (ARSB). For the same molecule, the IC50 worked out at 566 ± 28 µM against Sulf-2, 91 ± 4 µM at aryl sulfatase A (ARSA) and 101 ± 8 µM against aryl sulfatase B (ARSB).
In the case of `NS(=O)(=O)Oc1cccc(Oc2cccc(NS(=O)(=O)OCC(Cl)(Cl)Cl)c2)c1` [Compound 52], the inhibition at 1000 µM is 100% on Sulf-2, 100% at aryl sulfatase A (ARSA) and 96% on aryl sulfatase B (ARSB).
Turning to `NS(=O)(=O)Oc1cccc(Oc2ccc(NS(=O)(=O)OCC(Cl)(Cl)Cl)cc2)c1` [Compound 53], the inhibition at 1000 µM came out at 98% at Sulf-2, 96% at aryl sulfatase A (ARSA) and 86% on aryl sulfatase B (ARSB). In addition, the 50% inhibitory concentration (IC50) on Sulf-2 stood at 390 ± 11 µM; against aryl sulfatase A (ARSA), 108 ± 2 µM; at aryl sulfatase B (ARSB), 116 ± 10 µM.
Consider `NS(=O)(=O)Oc1cccc(-c2cccc(NS(=O)(=O)O)c2)c1` [Compound 54], for which the results for the inhibition at 1000 µM at Sulf-2, on aryl sulfatase A (ARSA) and on aryl sulfatase B (ARSB) were 31%, 0% and 0%, respectively.
As for `NS(=O)(=O)Oc1cccc(-c2ccc(NS(=O)(=O)O)cc2)c1` [Compound 55], the inhibition at 1000 µM turned out to be 4% on Sulf-2, 0% at aryl sulfatase A (ARSA) and 0% on aryl sulfatase B (ARSB).
Take `NS(=O)(=O)Oc1cccc(Oc2cccc(NS(=O)(=O)O)c2)c1` [Compound 56]: the inhibition at 1000 µM at Sulf-2 amounted to 58%; on aryl sulfatase A (ARSA), 95%; at aryl sulfatase B (ARSB), 85%.
In the case of `NS(=O)(=O)Oc1cccc(Oc2ccc(NS(=O)(=O)O)cc2)c1` [Compound 57], the inhibition at 1000 µM at Sulf-2 amounted to 13%; on aryl sulfatase A (ARSA) it was 34%; at aryl sulfatase B (ARSB) it was 77%.
Taken in the same sequence, the figures for `NS(=O)(=O)Oc1cccc(-c2ccccc2N(S(=O)(=O)OCC(Cl)(Cl)Cl)S(=O)(=O)OCC(Cl)(Cl)Cl)c1` [Compound 60] were 10%, 63% and 0%.
On the same counts, the results for `NS(=O)(=O)Oc1cccc(Oc2ccccc2N(S(=O)(=O)OCC(Cl)(Cl)Cl)S(=O)(=O)OCC(Cl)(Cl)Cl)c1` [Compound 61] are 18%, 82% and 40%.
Taken in the same sequence, the figures for `NS(=O)(=O)Oc1cccc(-c2ccccc2NS(=O)(=O)O)c1` [Compound 62] were 37%, 26% and 0%.
Take `NS(=O)(=O)Oc1cccc(Oc2ccccc2NS(=O)(=O)O)c1` [Compound 63]: the results for the inhibition at 1000 µM on Sulf-2, on aryl sulfatase A (ARSA) and on aryl sulfatase B (ARSB) were 56%, 54% and 93%, respectively.
Taken in the same sequence, the figures for `NS(=O)(=O)Oc1cccc(Oc2ccccc2C(=O)O)c1` [Compound 73] were 10%, 44% and 0%.
For the molecule `CN(C)S(=O)(=O)Oc1cccc(-c2ccccc2)c1` [Compound 77], the inhibition at 1000 µM at Sulf-2 was 0%.
On to `NS(=O)(=O)Oc1cccc(Oc2ccccc2)c1` [Compound 78], for which the inhibition at 1000 µM at Sulf-2 was determined as 32%.
